Measured values: paper PMC6259751, “Investigating Spectrum of Biological Activity of 4- and 5-Chloro-2-hydroxy-N-[2-(arylamino)-1-alkyl-2-oxoethyl]benzamides” (Molecules, 2011)
In brackets after ≈: the same amount, converted by molar mass. Read-outs that look alike come from different tables or passages of the source.

Assays:
[1] = Lipophilicity determination by RP-HPLC (capacity factor k / log k); format: physicochemical; settings: C18 column, MeOH 70% / H2O 30%, isocratic
Method: Hydrophobicities (log P/Clog P) of compounds 8 and 9 were calculated using two commercially available programs (ChemOffice Ultra 10.0 and ACD/LogP) and measured by means of RP-HPLC determination of capacity factors k with subsequent calculation of log k. The procedure was performed under isocratic conditions with methanol as an organic modifier in the mobile phase using an end-capped non-polar C18 stationary RP column. The results are shown in Table 1 and illustrated in Figure 1.
A Waters Alliance 2695 XE HPLC separation module and a Waters Photodiode Array Detector 2996 (Waters Corp., Milford, MA, USA) were used. A Symmetry® C18 5 μm, 4.6 × 250 mm, Part No. WAT054275 (Waters Corp., Milford, MA, USA) chromatographic column was used. The HPLC separation process was monitored by Empower™ 2 Chromatography Data Software, Waters 2009 (Waters Corp., Milford, MA, USA). A mixture of MeOH p.a. (70%) and H2O-HPLC – Mili-Q Grade (30%) was used as a mobile phase. The total flow of the column was 1.0 mL/min, injection volume, 30 μL, column temperature, 30 °C and sample temperature, 10 °C. The detection wavelength of 210 nm was chosen. The KI methanolic solution was used for the dead time (tD) determination. Retention times (tR) were measured in minutes. The capacity factors k were calculated using the Empower™ 2 Chromatography Data Software according to formula k = (tR - tD)/tD, where tR is the retention time of the solute, whereas tD denotes the dead time obtained using an unretained analyte. Log k, calculated from the capacity factor k, is used as the lipophilicity index converted to log P scale.

[2] = system: Mycobacterium tuberculosis MTB CNCTC My 331/88; assay: In vitro antimycobacterial evaluation; format: cell-based; settings: IC90 value
[3] = system: Mycobacterium avium MA CNCTC My 330/88; assay: In vitro antimycobacterial evaluation; format: cell-based; settings: IC90 value
[4] = system: Mycobacterium kansasii MK CNCTC My 235/80; assay: In vitro antimycobacterial evaluation; format: cell-based; settings: IC90 value
Candida tropicalis 156 = assay: In vitro antifungal susceptibility testing (broth microdilution); format: cell-based; settings: M27-A2 for yeasts, IC80 value
[5] = system: Trichophyton mentagrophytes 445; assay: as above; format: cell-based; settings: M38-A for moulds, IC50 value, read-out: MIC TM
[6] = system: Staphylococcus aureus CCM 4516/08; assay: In vitro antibacterial susceptibility testing (broth microdilution); settings: read-out: MIC SA
[7] = system: methicilin resistant Staphylococcus aureus H 5996/08; assay: as above
[8] = system: Staphylococcus epidermidis H 6966/08; assay: as above
[9] = system: Enterococcus sp. J 14365/08; assay: as above; settings: read-out: MIC EF
[10] = system: photosynthetic electron transport (PET) in spinach chloroplasts; assay: Inhibition of photosynthetic electron transport (PET) in spinach chloroplasts; format: biochemical, Spinacia oleracea L.; settings: DCPIP photoreduction
Method: Chloroplasts were prepared from spinach (Spinacia oleracea L.) according to Masarovicova and Kralova. The inhibition of photosynthetic electron transport (PET) in spinach chloroplasts was determined spectrophotometrically (Genesys 6, Thermo Scientific, USA), using an artificial electron acceptor 2,6-dichlorophenol-indophenol (DCIPP) according to Kralova et al., and the rate of photosynthetic electron transport was monitored as a photoreduction of DCPIP. The measurements were carried out in phosphate buffer (0.02 mol/L, pH 7.2) containing sucrose (0.4 mol/L), MgCl2 (0.005 mol/L) and NaCl (0.015 mol/L). The chlorophyll content was 30 mg/L in these experiments and the samples were irradiated (~100 W/m^2) from 10 cm distance with a halogen lamp (250 W) using a 4 cm water filter to prevent warming of the samples. The studied compounds were dissolved in DMSO due to their limited water solubility. […] The inhibitory efficiency of the studied compounds was expressed by IC50 values, i.e. by molar concentration of the compounds causing 50% decrease in the oxygen evolution rate relative to the untreated control.

[11] = H6966/08, 24 h, read-out: MIC SE
[12] = H6966/08, 48 h, read-out: MIC SE

| log k [1] | IC50 [10] [µM] | SMILES | MIC ([2]; 14h) [µM] | MIC ([2]; 21h) [µM] | MIC ([3]; 14h) [µM] | MIC ([3]; 21h) [µM] | MIC ([4]; 14h) [µM] | MIC ([4]; 21h) [µM] | MIC (Candida tropicalis 156; 24h) [µM] | MIC (Candida tropicalis 156; 48h) [µM] | MIC ([5]; 72h) [µM] | MIC ([5]; 120h) [µM] | MIC ([6]; CCM4516, 24 h) [µM] | MIC ([6]; CCM4516, 48 h) [µM] | MIC ([7]; MRSA, 24 h, read-out: MIC MRSA) [µM] | MIC ([7]; MRSA, 48 h, read-out: MIC MRSA) [µM] | MIC [8, 11] [µM] | MIC [8, 12] [µM] | MIC ([9]; SP.J14365/08, 24 h) [µM] | MIC ([9]; SP.J14365/08, 48 h) [µM] | other results |
| --- | --- | --- | --- | --- | --- | --- | --- | --- | --- | --- | --- | --- | --- | --- | --- | --- | --- | --- | --- | --- | --- |
| 0.7353 | 24 | CC(C)[C@@H](NC(=O)c1ccc(Cl)cc1O)C(=O)Nc1ccc(Br)cc1 [9g] | – | – | – | – | – | – | – | – | – | – | – | – | – | – | – | – | – | – | – |
| 0.7892 | 14.2 | CC(C)[C@H](NC(=O)c1ccc(Cl)cc1O)C(=O)Nc1ccc(C(F)(F)F)cc1 [9h] | – | – | – | – | – | – | – | – | – | – | – | – | – | – | – | – | – | – | – |
| 0.5902 | 37.3 | Cc1ccc(NC(=O)[C@@H](NC(=O)c2ccc(Cl)cc2O)C(C)C)cc1 [9i] | – | – | – | – | – | – | – | – | – | – | – | – | – | – | – | – | – | – | – |
| 0.3623 | 35.7 | COc1ccc(NC(=O)[C@@H](NC(=O)c2ccc(Cl)cc2O)C(C)C)cc1 [9j] | – | – | – | – | – | – | – | – | – | – | – | – | – | – | – | – | – | – | – |

| SMILES | log k [1] | IC50 [10] [µM] | MIC ([2]; 14h) [µM] | MIC ([2]; 21h) [µM] | MIC ([3]; 14h) [µM] | MIC ([3]; 21h) [µM] | MIC ([4]; 14h) [µM] | MIC ([4]; 21h) [µM] | MIC (Candida tropicalis 156; 24h) [µM] | MIC (Candida tropicalis 156; 48h) [µM] | MIC ([5]; 72h) [µM] | MIC ([5]; 120h) [µM] | MIC ([6]; CCM4516, 24 h) [µM] | MIC ([6]; CCM4516, 48 h) [µM] | MIC ([7]; MRSA, 24 h, read-out: MIC MRSA) [µM] | MIC ([7]; MRSA, 48 h, read-out: MIC MRSA) [µM] | MIC [8, 11] [µM] | MIC [8, 12] [µM] | MIC ([9]; SP.J14365/08, 24 h) [µM] | MIC ([9]; SP.J14365/08, 48 h) [µM] | other results |
| --- | --- | --- | --- | --- | --- | --- | --- | --- | --- | --- | --- | --- | --- | --- | --- | --- | --- | --- | --- | --- | --- |
| C[C@@H](NC(=O)c1ccc(Cl)cc1O)C(=O)Nc1ccc(Cl)cc1 [9b, 4-Chloro-N-{(1R)-2-[(4-chlorophenyl)-amino]-1-methyl-2-oxoethyl}-2-hydroxy benzamide] | 0.4921 | – | 32 (≈ 11.3 µg/mL) | 62.5 (≈ 22.1 µg/mL) | 125 (≈ 44.2 µg/mL) | 125 (≈ 44.2 µg/mL) | 125 (≈ 44.2 µg/mL) | 125 (≈ 44.2 µg/mL) | 250 (≈ 88.3 µg/mL) | 250 (≈ 88.3 µg/mL) | 250 (≈ 88.3 µg/mL) | 250 (≈ 88.3 µg/mL) | 7.81 (≈ 2.76 µg/mL) | 7.81 (≈ 2.76 µg/mL) | 7.81 (≈ 2.76 µg/mL) | 7.81 (≈ 2.76 µg/mL) | 1.95 (≈ 0.689 µg/mL) | 1.95 (≈ 0.689 µg/mL) | 500 (≈ 177 µg/mL) | 500 (≈ 177 µg/mL) | MIC ([7]; read-out: activity against methicillin-resistant Staphylococcus aureus (MIC)): 7.81 µM (≈ 2.76 µg/mL); MIC ([8]; H6966/08, read-out: activity against S. epidermidis (MIC)): 1.95 µM (≈ 0.689 µg/mL) |
| CC(C)[C@@H](NC(=O)c1ccc(Cl)cc1O)C(=O)Nc1ccc(Cl)cc1 [9d] | 0.6832 | – | 62.5 (≈ 23.8 µg/mL) | 62.5 (≈ 23.8 µg/mL) | 62.5 (≈ 23.8 µg/mL) | 62.5 (≈ 23.8 µg/mL) | 62.5 (≈ 23.8 µg/mL) | 62.5 (≈ 23.8 µg/mL) | > 125 | > 125 | 7.81 (≈ 2.98 µg/mL) | 7.81 (≈ 2.98 µg/mL) | > 500 | > 500 | > 500 | > 500 | > 500 | > 500 | > 500 | > 500 | – |
| O=C(N[C@@H](Cc1ccccc1)C(=O)Nc1ccc(Cl)cc1)c1ccc(Cl)cc1O [9e] | 0.7540 | – | 32 (≈ 13.7 µg/mL) | 32 (≈ 13.7 µg/mL) | 32 (≈ 13.7 µg/mL) | 62.5 (≈ 26.8 µg/mL) | 32 (≈ 13.7 µg/mL) | 62.5 (≈ 26.8 µg/mL) | 125 (≈ 53.7 µg/mL) | 125 (≈ 53.7 µg/mL) | 125 (≈ 53.7 µg/mL) | 125 (≈ 53.7 µg/mL) | > 250 | > 250 | > 250 | > 250 | > 250 | > 250 | > 500 | > 500 | – |
